In patent US20240335431A1, “1-H-PYRROLO[2,3-c]PYRIDINE COMPOUNDS” (Acerta Pharma B.V., priority 2023, published 2024) one finds Papp A→B data, which are given here for twelve compounds.

A short description of this data set: Caco-2 cell monolayers intrinsic permeation assay in the presence of efflux inhibitors. In kind it is in vitro ADME. Conditions: Caco-2, with efflux inhibitors. An excerpt:
Caco-2 cells were obtained from American Type Culture Collection (ATCC). HEPES, penicillin, streptomycin, bovine serum albumin (BSA) were obtained from Beijing Xinjingke Biotechnology Co, Ltd. Fetal bovine serum, Hank's balanced salt solution (HBSS) and non-essential amino acids (NEAA) were purchased from Gibco. Dulbecco's Modified Eagle's Medium (DMEM) was purchased from Corning and MES from Sigma. HTS Transwell-24 permeable supports were purchased from Corning. Zosuquidar and Ko-143 were obtained from MedChemExpress and Benzbromarone from Sigma.
The Caco-2 cell culture medium consisted of DMEM with high glucose and L-glutamine supplemented with 10% FBS, 0.1 mg/mL streptomycin, 100 units of penicillin, 0.6 mg/mL kanamycin sulfate and 1×NEAA. […] culture medium was added to each Transwell insert with 800 mL added to each well of the reservoir. After incubation at 37° C. in 5% CO2 for 1 hour, the plates were ready for seeding.
The cells were cultivated in T-75 flasks at 37° C., 5% CO2, 95% relative humidity. At 80 to 90% confluence, cells were treated with trypsin/EDTA treatment until they became detached. The trypsin/EDTA was inactivated by adding excess serum containing medium. The cell suspension was centrifuged at 120 g for 10 minutes followed by resuspension of the cell pellet in seeding medium at a cell density of 7.92×10^5 cells/mL.
[…] of the resulting cell suspension was added to each well of the Transwell plate and incubated for 14 to 18 days, with medium replaced every other day. After incubation for 14 to 18 days, the cells should have reached confluence and should be tested for electrical resistance using a Millicel Epithelial Volt-Ohm measuring system (Millipore).
The cell monolayers were washed twice with pre-warmed HBSS and incubated at 37° C. for 30 minutes under gentle shaking (480 rpm).
The compound under test was presented as a 10 mM DMSO stock solution. 2 mL of the 10 mM stock was added to 8 mL DMSO to produce a 2 mM stock. 2 mL was added to 398 mL of HBSS containing 10 mM Zosuquidar, 30 mM Benzbromarone and 2 mM KO-143 to make a […] solution.
210 mL of the test compound solution was added to the apical compartment of the Transwell plate, with a 10 mL sample taken to act as the time 0 sample. The wells of the receiver (basolateral) compartment were filled with 800 mL HBSS (containing the efflux inhibitors). The plates were incubated at 37° C. with shaking at 480 rpm for 120 minutes with sampling at 45 and 120 minutes.
At each sampling time (0, 45 and 120 minutes) 10 mL was removed from the apical compartment and add to 90 mL (HBSS containing the efflux inhibitors). 100 mL was removed from each basolateral compartment. 3 volumes of cold acetonitrile containing internal standard was added to each sample and vortex mixed for 10 minutes at 100 rpm. Samples were then centrifuged at 400 rpm for 20 minutes. 50 mL of the supernatant was taken for LC/MS/MS analysis to determine compound concentration.
The apparent permeability (Papp), in units of centimetre per second, were calculated for Caco-2 drug transport using the following equation: […]
Where CR is the concentration of compound in the receiver side at the respective time point, CD is the concentration of compound in the donor side at the respective timepoint. Area is the surface area of the membrane and time is 4500 seconds (75×60 seconds).
Consider `Cc1c(C(=O)C2CCN(C(=O)[C@H]3NC[C@@H]4C[C@@H]43)CC2)c2ccncc2n1-c1ccc(F)cc1C(=O)N(CC(F)(F)F)C(C)C` (single isomer, unassigned) [Example 51-1], for which the Papp A→B was determined as 1.7 ×10⁻⁶ cm/s.
`Cc1c(C(=O)[C@@H]2CCN(C(=O)[C@@H]3CC[C@H](C)N3)[C@@H](C)C2)c2ccncc2n1-c1ccc(F)cc1C(=O)N(C(C)C)C(C)C` (stereo in doubt) [Example 62, 5-Fluoro-N,N-diisopropyl-2-(2-methyl-3-((2S,4RS)-2-methyl-1-((2S,5S)-5-methylpyrrolidine-2-carbonyl)piperidine-4-carbonyl)-1H-pyrrolo[2,3-c]pyridin-1-yl)benzamide]: the Papp A→B came out at 4.9 ×10⁻⁶ cm/s.
In the case of `CCN(C(=O)c1cc(F)ccc1-n1c(C)c(C(=O)[C@@H]2CCN(C(=O)[C@@H]3CC[C@H](C)N3)[C@@H](C)C2)c2ccncc21)C(C)C` (stereo in doubt) [Example 63, N-Ethyl-5-fluoro-N-isopropyl-2-(2-methyl-3-((2S,4RS)-2-methyl-1-((2S,5S)-5-methylpyrrolidine-2-carbonyl)piperidine-4-carbonyl)-1H-pyrrolo[2,3-c]pyridine-1-yl)benzamide], the apical-to-basolateral permeability (Papp A→B) was 1.5 ×10⁻⁶ cm/s.
For `Cc1c(C(=O)[C@@H]2CCN(C(=O)[C@@H]3CC[C@@H](C)N3)[C@@H](C)C2)c2ccncc2n1-c1ccc(F)cc1C(=O)N(C(C)C)C(C)C` (stereo in doubt) [Example 64, 5-Fluoro-N,N-diisopropyl-2-(2-methyl-3-((2S,4RS)-2-methyl-1-((2S,5R)-5-methylpyrrolidine-2-carbonyl)piperidine-4-carbonyl)-1H-pyrrolo[2,3-c]pyridin-1-yl)benzamide], the Papp A→B was 4.3 ×10⁻⁶ cm/s.
Then `CCN(C(=O)c1cc(F)ccc1-n1c(C)c(C(=O)[C@@H]2CCN(C(=O)[C@@H]3CC[C@@H](C)N3)[C@@H](C)C2)c2ccncc21)C(C)C` (stereo in doubt) [Example 65, N-Ethyl-5-fluoro-N-isopropyl-2-(2-methyl-3-((2S,4RS)-2-methyl-1-((2S,5R)-5-methylpyrrolidine-2-carbonyl)piperidine-4-carbonyl)-1H-pyrrolo[2,3-c]pyridin-1-yl)benzamide], with 1.7 ×10⁻⁶ cm/s.
Then `CC(C)N(C(=O)c1cc(F)ccc1-n1cc(C(=O)C2CN(C(=O)[C@H]3NC4CCC3CC4)C2)c2ccncc21)C(C)C` [Example 6, (S)-2-(3-(1-(2-Azabicyclo[2.2.2]octane-3-carbonyl)azetidine-3-carbonyl)-1H-pyrrolo[2,3-c]pyridin-1-yl)-5-fluoro-N,N-diisopropylbenzamide], with < 0.5 ×10⁻⁶ cm/s.
Under `CCN(C(=O)c1cc(F)ccc1-n1cc(C(=O)C2CN(C(=O)[C@H]3N[C@@H]4CC[C@H]3C4)C2)c2ccncc21)C(C)C` [Example 8, 2-(3-(1-((1R,3S,4S)-2-Azabicyclo[2.2.1]heptane-3-carbonyl)azetidine-3-carbonyl)-1H-pyrrolo[2,3-c]pyridin-1-yl)-N-ethyl-5-fluoro-N-isopropylbenzamide] stands 0.2 ×10⁻⁶ cm/s.
In the case of `CC(C)(F)c1ncccc1-c1cc(F)ccc1-n1cc(C(=O)C2CN(C(=O)[C@H]3N[C@@H]4CC[C@H]3C4)C2)c2ccncc21` [Example 13, (1-((1R,3S,4S)-2-Azabicyclo[2.2.1]heptane-3-carbonyl)azetidin-3-yl)(1-(4-fluoro-2-(2-(2-fluoropropan-2-yl)pyridin-3-yl)phenyl)-1H-pyrrolo[2,3-c]pyridin-3-yl)methanone], the Papp A→B is 1.7 ×10⁻⁶ cm/s.
Then `CCN(C(=O)c1cc(F)ccc1-n1cc(C(=O)C2CCN(C(=O)[C@H]3N[C@H]4C[C@@H]3[C@@H](F)C4)CC2)c2ccncc21)C(C)C` [Example 30, N-Ethyl-5-fluoro-2-(3-(1-((1S,3S,4S,5S)-5-fluoro-2-azabicyclo[2.2.1]heptane-3-carbonyl)piperidine-4-carbonyl)-1H-pyrrolo[2,3-c]pyridin-1-yl)-N-isopropylbenzamide], with 0.8 ×10⁻⁶ cm/s; and `C[C@@H]1CCC[C@H](C)N1C(=O)c1cc(F)ccc1-n1cc(C(=O)C2CCN(C(=O)[C@H]3N[C@@H]4CC[C@H]3C4)CC2)c2ccncc21` [Example 33, (1-((1R,3S,4S)-2-Azabicyclo[2.2.1]heptane-3-carbonyl)piperidin-4-yl)(1-(2-((2R,6S)-2,6-dimethylpiperidine-1-carbonyl)-4-fluorophenyl)-1H-pyrrolo[2,3-c]pyridin-3-yl)methanone], with 0.5 ×10⁻⁶ cm/s; and `C[C@@H]1COC[C@@H](C)N1C(=O)c1cc(F)ccc1-n1cc(C(=O)C2CCN(C(=O)[C@H]3N[C@@H]4CC[C@H]3C4)CC2)c2ccncc21` [Example 34, (1-((1R,3S,4S)-2-Azabicyclo[2.2.1]heptane-3-carbonyl)piperidin-4-yl)(1-(2-((3R,5R)-3,5-dimethylmorpholine-4-carbonyl)-4-fluorophenyl)-1H-pyrrolo[2,3-c]pyridin-3-yl)methanone], with 0.2 ×10⁻⁶ cm/s.
As for `CC(C)N(C(=O)c1cc(F)ccc1-n1cc(C(=O)C2CCN(C(=O)[C@H]3N[C@@H]4CC[C@H]3C4)CC2)c2c(F)cncc21)C(C)C.O=CO` [Example 44, 2-(3-(1-((1R,3S,4S)-2-Azabicyclo[2.2.1]heptane-3-carbonyl)piperidine-4-carbonyl)-4-fluoro-1H-pyrrolo[2,3-c]pyridin-1-yl)-5-fluoro-N,N-diisopropylbenzamide 1·formic acid], the Papp A→B came to 1 ×10⁻⁶ cm/s.

The Papp A→B is how fast a substance crosses the layer from the apical side.
